We go through four compounds from ChEMBL document CHEMBL1129185, “The design and synthesis of non-peptide ligands with affinity and selectivity for tachykinin receptors” (Bioorg Med Chem Lett, 1996).

Test [1] deals with T1, Substance-P receptor (Homo sapiens, UniProt P25103). In words: Inhibitory activity against binding of [125I]Bolton-Hunter SP to tachykinin NK-1 receptor in human lymphoma IM9 cells. Type of test: cell-based, IM-9.
In test [2] the target is T2, Neuromedin-K receptor (Cavia porcellus) (UniProt P30098).
T2 sequence (whole entry): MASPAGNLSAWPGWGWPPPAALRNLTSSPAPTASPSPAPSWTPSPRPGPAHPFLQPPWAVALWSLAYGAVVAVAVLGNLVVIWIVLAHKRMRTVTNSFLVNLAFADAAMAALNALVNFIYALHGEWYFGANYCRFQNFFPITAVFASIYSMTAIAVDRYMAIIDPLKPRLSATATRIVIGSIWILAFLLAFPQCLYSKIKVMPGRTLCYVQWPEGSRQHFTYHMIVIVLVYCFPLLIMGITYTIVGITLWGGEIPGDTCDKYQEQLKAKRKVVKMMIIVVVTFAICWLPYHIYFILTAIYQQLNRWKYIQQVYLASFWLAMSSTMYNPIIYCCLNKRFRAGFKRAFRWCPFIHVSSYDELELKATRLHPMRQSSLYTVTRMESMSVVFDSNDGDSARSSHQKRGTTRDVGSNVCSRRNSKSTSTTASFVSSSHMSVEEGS
Kind of test: Inhibitory activity against binding of [125I][MePhe7]-NKB SP to tachykinin NK-3 receptor in guinea pig cortical membranes at concentration 10 uM. The test is classed as cell membranes.

In test [3] the target is T1, Substance-P receptor. Kind of test: Inhibitory activity against binding of [125I]Bolton-Hunter SP to tachykinin NK-1 receptor in human lymphoma IM9 cells. Type of test: cell-based, IM-9.
Another test addresses T3, Neuromedin-K receptor (Cavia porcellus, UniProt P30098).
T3 sequence (P30098 whole entry): T2 sequence (whole entry)
Kind of test: Inhibitory activity against binding of [125I][MePhe7]-NKB SP to tachykinin NK-3 receptor in guinea pig cortical membranes. The test is classed as cell membranes.

Test [4] deals with T1, Substance-P receptor. Kind of test: Inhibitory activity against binding of [125I]Bolton-Hunter SP to tachykinin NK-1 receptor in human lymphoma IM9 cells at concentration 10 uM. The test is classed as cell-based. The settings on record: IM-9.

Peptide text beside a SMILES is read from it. Bounds are passed on as bounds.

T1 sequence (P25103 whole entry): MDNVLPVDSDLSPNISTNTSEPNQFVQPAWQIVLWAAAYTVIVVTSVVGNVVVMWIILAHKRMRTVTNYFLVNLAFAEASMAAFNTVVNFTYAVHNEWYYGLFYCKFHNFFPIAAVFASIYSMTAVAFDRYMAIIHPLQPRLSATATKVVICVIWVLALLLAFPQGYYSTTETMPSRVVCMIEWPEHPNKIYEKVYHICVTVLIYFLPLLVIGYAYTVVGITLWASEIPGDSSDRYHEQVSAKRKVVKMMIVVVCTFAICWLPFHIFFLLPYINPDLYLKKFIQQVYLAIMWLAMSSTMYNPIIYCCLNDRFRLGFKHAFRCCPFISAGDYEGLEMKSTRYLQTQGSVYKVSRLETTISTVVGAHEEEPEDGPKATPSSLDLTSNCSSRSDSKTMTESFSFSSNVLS

`O=C1C(Cc2c[nH]c3ccccc23)OCCN1Cc1ccccc1` (configuration not stated) came in with an IC50 at Substance-P receptor [1] of 3.5 µM. Besides, the inhibition in test [2] was under 10%.
Turning to `NC(=O)[C@H](Cc1ccccc1)NC(=O)[C@H](Cc1c[nH]c2ccccc12)NC(=O)OCc1ccccc1` (HELM PEPTIDE1{[O=C(OCc1ccccc1)[*:2]].W.F.[am]}$$$$V2.0), in test [2], the inhibition is under 10%. The same compound came in with an IC50 at Substance-P receptor [3] of 4.2 µM.
On to `CSCC[C@H](NC(=O)[C@H](CC(C)C)NC(=O)CNC(=O)[C@H](Cc1ccccc1)NC(=O)[C@H](Cc1ccccc1)NC(=O)[C@H](CCC(N)=O)NC(=O)[C@H](CCC(N)=O)NC(=O)[C@@H]1CCCN1C(=O)[C@H](CCCCN)NC(=O)[C@@H]1CCCN1C(=O)[C@@H](N)CCCN=C(N)N)C(N)=O` [SUBSTANCE P], for which, at Neuromedin-K receptor, the IC50 was 717 nM. That is a sub-micromolar value.
`O=C1C(Cc2ccccc2)OCCN1Cc1ccccc1` (configuration not stated) gave an inhibition on Substance-P receptor [4] of under 10%. On Neuromedin-K receptor, the IC50 stood at 4090 nM.
